The source of these data is article PMC10674535, “Development and Evaluation of a Self-Nanoemulsifying Drug Delivery System for Sinapic Acid with Improved Antiviral Efficacy against SARS-CoV-2” (Pharmaceutics, 2023).

Data set [1] deals with T1, 3CL Protease, tagged (SARS-CoV-2) (Mpro) (Severe acute respiratory syndrome coronavirus 2, UniProt P0DTD1).
T1 construct: 3CL Protease, tagged (SARS-CoV-2) Assay Kit; unspecified tag (printed only as 'tagged'); purchased BPS Bioscience, Inc. 79955-1
In words: Mpro enzyme assay (3CL Protease FRET assay kit). It counts as biochemical. The conditions noted are these: excitation 360 nm, emission 460 nm, read-out: IC50, in vitro Mpro inhibitory activity.
Source text: The in vitro FRET assay was monitored at an emission wavelength of 460 nm with an excitation at 360 nm using a Flx800 fluorescence spectrophotometer (BioTek Instruments, Winooski, VT, USA).

The subject of data set [2] is SARS-CoV-2 (hCoV-19/Egypt/NRC-3/2020 isolate). In words: microbe, parasite or virus in culture. The conditions noted are these: Severe acute respiratory syndrome coronavirus 2, Vero C1008, 48 h, read-out: IC50, in vitro antiviral activity against SARS-CoV-2. It counts as cell-based.
A short description of data set [3]: Equilibrium (saturated) solubility of SA in oils, surfactants and cosurfactants (isothermal method). The note with it: room temperature; for solubility at 3 days: read-out: Saturated solubility of sinapic acid; for Saturated solubility of sinapic acid: 3 days, listed as SA. It is filed as physicochemical. The text has this: The equilibrium solubility of SA was studied in various oils, surfactants, and cosurfactants. Oils of different saturation degrees (medium- or long-chain triglycerides) were utilized to create an SNE to test their solubilization and nano-emulsification ability. The oil with the highest ability to solubilize SA was chosen due to its significant impact on drug solubilization ability and absorption. The tested oils included Labrafil, Capryol-90, Labrafac, olive oil, anise oil, almond oil, soybean oil, and corn oil. The screened surfactants were hydrophilic non-ionic surfactants (Cremophor El, Tween 20, and Tween 80); they have high HLB values and low oral toxicity. Labrasol, Transcutol, PEG 400, and propylene glycol were the screened cosurfactants. An isothermal method previously reported in the literature was utilized for the solubility determination. In brief, 300 mg of SA was added to 1 mL of each component in screw-capped glass vials and mixed using a vortex mixer. The mixtures were then transferred to a thermodynamic water bath shaker (JULABO™, Julabo Labortechnik GMBH, Seelbach, Germany) for continuous shaking at a speed of 100 rpm at room temperature for three days, followed by centrifugation at 4000 rpm for 25 min. SA concentration was measured spectrophotometrically at 322 nm after the supernatant was diluted with methanol using a magnetic stirrer at 500 rpm for 2 min at room temperature. The results of this study provide important insights into the solubility of SA in various oils, surfactants, and cosurfactants, which is crucial for the formulation of SA in a self-nanoemulsifying dosage form.

Data set [4] can be described thus: in vitro. The conditions noted are these: African green monkey.

In brackets after ≈: the same amount, converted by molar mass. Like-named read-outs stand apart in the source and are kept apart here.

As usually defined, the IC50 is the point on the concentration scale where inhibition reaches its midpoint. Broadly, the solubility is how much of the substance goes into solution per volume. For the compound `COc1cc(/C=C/C(=O)O)cc(OC)c1O` [Sinapic acid], the figures for the IC50 in data set [1] and in data set [2] were 6.74 ± 0.95 µM and 2.53 ± 0.065 µg/mL (≈ 0.0113 mM), respectively. Also, the solubility at 3 days was 22.5 mg/mL (≈ 100 mM) in data set [3] (Capryol 90 (oil), oil or lipid, thermodynamic from solid, in Capryol 90 (oil)); 138 mg/mL (≈ 617 mM) in data set [3] (Cremophore El (surfactant), thermodynamic from solid, in Cremophore El (surfactant)); 14.3 mg/mL (≈ 63.9 mM) in data set [3] (Labrafac (oil), oil or lipid, thermodynamic from solid, in Labrafac (oil)); 30 mg/mL (≈ 134 mM) in data set [3] (Labrafil (oil), in Labrafil (oil)); 30 mg/mL (≈ 134 mM) in data set [3] (Labrafil (oil), oil or lipid, thermodynamic from solid, in Labrafil (oil)); 60.4 mg/mL (≈ 269 mM) in data set [3] (Labrasol, thermodynamic from solid, in Labrasol). Moreover, the solubility at 3 days in data set [3] (PEG 400 (co-surfactant), organic solvent or mixture, thermodynamic from solid, in PEG 400 (co-surfactant)) stood at 102 mg/mL (≈ 455 mM); in data set [3] (Transcutol (co-surfactant), organic solvent or mixture, thermodynamic from solid, in Transcutol (co-surfactant)), 193 mg/mL (≈ 860 mM); in data set [3] (Tween 20 (surfactant), thermodynamic from solid, in Tween 20 (surfactant)), 123 mg/mL (≈ 550 mM); in data set [3] (Tween 80 (surfactant), thermodynamic from solid, in Tween 80 (surfactant)), 78.8 mg/mL (≈ 352 mM); in data set [3] (almond oil, oil or lipid, thermodynamic from solid, in almond oil), 1.71 mg/mL (≈ 7.63 mM); in data set [3] (anise oil, oil or lipid, thermodynamic from solid, in anise oil), 5.02 mg/mL (≈ 22.4 mM). For the same compound, the solubility at 3 days in data set [3] (corn oil, oil or lipid, thermodynamic from solid, in corn oil) was found to be 0.81 mg/mL (≈ 3.61 mM); in data set [3] (olive oil, oil or lipid, thermodynamic from solid, in olive oil) it was 7.11 mg/mL (≈ 31.7 mM); in data set [3] (propylene glycol (co-surfactant), organic solvent or mixture, thermodynamic from solid, in propylene glycol (co-surfactant)), 58.4 mg/mL (≈ 260 mM); in data set [3] (soybean oil, oil or lipid, thermodynamic from solid, in soybean oil) it was 1.25 mg/mL (≈ 5.58 mM). The “Saturated solubility of sinapic acid” value in data set [3] (in Cremophore El (surfactant)) was determined as 138 mg/mL; in data set [3] (in Labrasol), 60 mg/mL; in data set [3] (in PEG 400 (co-surfactant)), 102 mg/mL; in data set [3] (in Transcutol (co-surfactant)), 192 mg/mL; in data set [3] (in Tween 80 (surfactant)), 78 mg/mL; in data set [3] (in propylene glycol (co-surfactant)), 58 mg/mL. In data set [4], this compound gave a CC50 of 196 ± 15.1 µg/mL (≈ 0.875 mM).

With `CCC(CC)COC(=O)[C@H](C)N[P@](=O)(OC[C@H]1O[C@@](C#N)(c2ccc3c(N)ncnn23)[C@H](O)[C@@H]1O)Oc1ccccc1` [remdesivir, reference compound], the IC50 in data set [2] (Vero E6 cells, MOI 0.5, viral RNA by real-time PCR after 2 days, n = 3) came to 0.036 ± 0.002 µg/mL (≈ 5.97e-05 mM).
